Laboratory results published in article PMC12606866, “Phenolic Compounds from Diarthron iranica: Enzymatic and in Silico Insights Into α-Amylase Inhibitory Activity” (Iranian Journal of Pharmaceutical Research : IJPR, 2025).
≈ marks a conversion by molar mass, not a printed value.

What follows are molecules tested against α-amylase (assay: DNS colorimetric alpha-amylase inhibition assay with starch).
Format: biochemical

**Q.** With `O=c1cc(-c2ccc(O)c(O)c2)oc2cc(O)cc(O)c12` [luteolin, reference compound] as the molecule, how does the IC50 read?
**A.** The IC50 was 630 µg/mL (≈ 2200 µM).

**Q.** `COc1cc2cc(Oc3ccc4ccc(=O)oc4c3)c(=O)oc2cc1O` [compound 2, 6'-Methoxy-7'-hydroxy-3'-O-7-bicoumarin] was tested. Which IC50 did it give?
**A.** The IC50 was 710 µg/mL (≈ 2020 µM).

**Q.** With `COc1cc(O[C@@H]2O[C@H](CO[C@@H]3OC[C@@H](O)[C@H](O)[C@H]3O)[C@@H](O)[C@H](O)[C@H]2O)c2c(=O)cc(-c3ccc(O)cc3)oc2c1` [compound 1, 5-[(β)-D-xylopyranoside-(1'''→6'')-β-D-glucopyranoside] 7-Methoxy apigenin] as the molecule, how does the IC50 read?
**A.** Its IC50 is 1320 µg/mL (≈ 2280 µM).

**Q.** How did the IC50 turn out when `COc1cc([C@H]2OC[C@H]3[C@@H]2CO[C@@H]3c2ccc(O)c(OC)c2)ccc1O` [compound 3, 4,4'-dihydroxy-3,3'-dimethoxy-7, 9’:7’, 9-diepoxylignan] was run?
**A.** Its IC50 is 1810 µg/mL (≈ 5050 µM).
